In patent publication US20250009753A1, “METHODS FOR TREATING IMMUNE REFRACTORY LUNG CANCER” (Revolution Medicines, Inc., priority 2022, published 2025):

Test system: eLL2 KRASWT/G12C NRAS−/− A2 tumors
Assay: Immune cell infiltration in tumors by flow cytometry
Assay type: in vivo, mouse
Conditions: 24 hours post 4 days of treatment, Compound A 200 mg/kg po qd, RMC-4550 30 mg/kg po qd, anti-PD-1 10 mg/kg ip qw
Protocol: Methods: Effects of Compound A (Ex. A556 of Table 1). dosed at 200 mg/kg po qd, RMC-4550 dosed at 30 mg/kg po qd, anti-PD-1 dosed at 10 mg/kg ip qw and the combination therapies on the immune cell infiltration in the eLL2 KRASWT/G12C NRAS−/− A2 tumors have been evaluated 24 hours post 4 days of treatment in 3 mice/group by flow cytometry. Tumor tissue was minced, processed with the Miltenyi Biotec Mouse Tumor Dissociation Kit or the Dri Tumor & Tissue Dissociation Reagent from BD Biosciences, and homogenized with the gentleMACS™ Dissociator. The cell suspension was incubated at 4° C. for 30 minutes with Mouse BD Fc Block (Clone 2.4G2 from BD Pharmingen), 10 minutes with Blue Dead Cell Stain Kit (from Invitrogen) and 30 min in cell staining buffer. Antibodies used targeted CD45 (Clone 30-F11 from BD Biosciences), CD19 (Clone 1D3 from BD Biosciences, CD3E (Clone145-2C11 from Biolegend), CD8b (Clone H35-17.2 from BD Biosciences), CD4 (Clone GK1.5 from Biolegend), CD11b (Clone M1/70 from Biolegend), F4/80 (Clone BM8 from Biolegend), Ly-6G (Clone 1A8 from BD Biosciences) and Ly-6C (Clone HK1.4 from Biolegend).

Cc1nc(N2CCC3(CC2)CO[C@@H](C)[C@H]3N)c(CO)nc1-c1cccc(Cl)c1Cl [RMC-4550]
Ly6G+ myeloid suppressor cells: significantly decreased
